In brackets after ≈: the same amount, converted by molar mass. Like-named read-outs stand apart in the source and are kept apart here.
Assays:
[1] = cited from earlier work
[2] = Clinical bioequivalence study of baclofen injection compared to baclofen tablets in healthy adult volunteers; assay type: in vivo, human
From the text: This study was designed as a two-part, single-dose bioequivalence study of baclofen injection (test formulation) compared to commercial baclofen tablets (reference product) in healthy adult volunteers under fasted conditions. Part 1 of this study was a single-dose, open-label, four-treatment, randomized, crossover bioequivalence study of baclofen tablets and baclofen injection in healthy adults under fasted conditions. If needed, Part 2 of this study was to be a single-dose, two-way crossover between the most promising infusion of baclofen injection from Part 1 and baclofen tablets.
Subjects were randomized to receive each of 4 treatments in a randomized, crossover fashion: • 15 mg of baclofen injection administered intravenously over 180 minutes • 16 mg of baclofen injection administered intravenously over 180 minutes • 16 mg of baclofen injection administered intravenously over 240 minutes • 20 mg of baclofen tablet administered orally
Each treatment administration was separated by a washout period of at least 3 days. Each dose was administered following a 10-hour overnight fast.
During each study period, 6 mL blood samples were obtained prior to study drug administration and at selected times through 48 hours after drug administration. In the study periods in which subjects received an IV infusion. PK sampling was timed relative to the start of the infusion. Plasma pharmacokinetic samples were analyzed for baclofen using a validated achiral bioanalytical method. Appropriate pharmacokinetic parameters were calculated for each formulation using non compartmental methods.
Treatments A, B, and C: • Treatment A dose:=15 mg of baclofen injection administered intravenously over 180 minutes • Treatment B dose=16 mg of baclofen injection administered intravenously over 180 minutes • Treatment C dose=16 mg of baclofen injection administered intravenously over 240 minutes
Control Product: Treatment D: • Baclofen Tablet, 20 mg, dose:=1×20 mg tablet
Concentration-time data for baclofen were analyzed using noncompartmental methods in Phoenix™ WinNonlin® Version 6.3, Certara L.P.). During the pharmacokinetic analysis, concentrations below the limit of quantitation […] up to the time of the first quantifiable concentration were treated ac zero. Embedded (values between 2 quantifiable concentrations) and/or terminal BLQ concentrations were treated as “missing”. Actual sample times, relative to the time of dose, were used in the pharmacokinetic analysis.
During each baclofen injection treatment period, samples were drawn at 0 hour (predose) and 0.5, 1.0, 1.5, 2.0, 2.5, 3.0, 3.5, 4.0, 4.5, 5.0, 6.0, 7, 8, 10, 12, 18, 24, 30, 36, and 48 hours after starting the infusion.
During the baclofen tablet administration treatment period, samples were drawn at 0 hour (predose) and at 0.25, 0.5, 0.75, 1.0, 1.5, 2.0 3.0, 3.5, 4.0, 5.0, 6.0, 7, 8, 10, 12, 18, 24, 30, 36, and 48 hours after oral administration.

[3] = Study 2: dose escalation study of IV baclofen in healthy adult volunteers; assay type: in vivo, human; conditions: for subjects with asymptomatic nystagmus: 10-minute infusion, of 12 subjects; for bioavailability: human, plasma
Description: Study 2: Dose Escalation Study of IV Baclofen in Healthy Adult Volunteers
Following completion of the first-in-human study, a dose escalation study of IV and oral baclofen in 36 healthy volunteers was carried out using a randomized crossover oral/IV dose design and incorporating the investigational baclofen IV injection. The objectives of the study were: 1) characterize the pharmacokinetics of clinically relevant doses of oral and intravenous baclofen, 2) determine the safety profile of oral and intravenous baclofen, and 3) estimate bioequivalence parameters (AUC and Cmax) for 10- and 60-minute (only 15 mg dose) infusions of baclofen.
The general design of the study involved three cohorts of 12 subjects. Initially 3 subjects were randomized to receive the lowest dosing regimen. These subjects received a 7.5 mg IV infusion, followed by a washout period of 2 or more days, followed by a 10 mg oral dose. […] Twelve subjects completed Cohort 1 and received a […] IV and a 10 mg oral dose. The IV baclofen doses were based on a 75% bioavailability observed in the pilot study. In Cohort 2, 12 different subjects received 11.5 mg of IV and 15 mg of oral baclofen. In Cohort 3, another 12 subjects received 20 mg of oral and 15 mg of IV baclofen. Once all subjects had completed the 15 mg IV dose without complications, an additional dosing period was added to this Cohort in which 15 mg baclofen was infused over 60 in to 12 subjects. […] Blood samples were collected between 0-24 hours. A validated, liquid chromatography-mass spectroscopy assay was used to measure plasma baclofen concentrations.
Pharmacokinetic analysis was performed with Phoenix (Centara), a pharmacokinetic data analysis package. Pharmacokinetic parameters, including the observed maximum concentration (Cmax), the observed time to maximum concentration (Tmax), area under the concentration-time curve (AUC), clearance (CL), and volume of distribution (Vd), were estimated using non-compartmental analysis. The absolute oral bioavailability was calculated by dividing the dose-normalized AUC after oral dosing by the dose-normalized AUC after intravenous dosing. For an exploratory study of bioequivalence, the 90% confidence intervals of the geometric mean AUC(0-t), AUC(0-∞) and Cmax oral/AV ratios were determined using the 60-minute infusion as the test dose and the oral […] dose as the reference.

SMILES: NCC(CC(=O)O)c1ccc(Cl)cc1 (stereo not drawn) [baclofen, 4-amino-3-[4-chlorophenyl] butanoic acid]
- solubility in chloroform ([1]; chloroform): insoluble
- solubility in methanol ([1]; methanol): very slightly soluble
- solubility in water ([1]; water): 2090 mg/L (≈ 9.78 mM)
- geometric mean ratio vs. Treatment D (20 mg oral tablet) for AUClast ([2]; 16 mg IV over 180 minutes, 90% CI 89.7-94.6%): 92.1%
- geometric mean ratio vs. Treatment D (20 mg oral tablet) for AUCinf ([2]; 16 mg IV over 180 minutes, 90% CI 89.8-94.6%): 92.2%
- geometric mean ratio vs. Treatment D (20 mg oral tablet) for Cmax ([2]; 16 mg IV over 180 minutes, 90% CI 93.7-101.0%): 97.3%
- median Tmax ([2]; 20 mg oral tablet, fasted): 1.0 h
- conversion factor to the oral regimen giving bioequivalent substitution ([2]; IV administered over 180 minutes): 0.8
- bioequivalence to the 20 mg baclofen oral tablet ([2]; all three IV infusions: 15 mg over 180 min, 16 mg over 180 min, 16 mg over 240 min): bioequivalent
- half-life ([2]; human, plasma, other: intravenous infusions and oral tablet, IV infusions and oral tablet, read-out: mean T1/2): 330 to 348 min
- difference in median Tmax (oral tablet earlier than IV infusions) ([2]; human, plasma, other: oral tablet versus intravenous infusions, 20 mg oral tablet vs IV infusions): 2 to 3 h
- Tmax ([2]; human, plasma, across IV infusions (15 mg/180 min, 16 mg/180 min, 16 mg/240 min), read-out: median Tmax): 3 to 4 h
- clearance ([2]; human, plasma, across IV infusions, read-out: mean total systemic clearance (CLT)): 147 to 148 mL/min
- Vd ([2]; human, plasma, across IV infusions, read-out: mean volume of distribution (Vz)): 69.8 to 71.4 L
- subjects with asymptomatic nystagmus ([3]; 7.5 mg IV): 2 subjects
- subjects with asymptomatic nystagmus ([3]; 11.5 mg IV): 6 subjects
- subjects with asymptomatic nystagmus ([3]; 15 mg IV): 6 subjects
- subjects with mild transient ataxia ([3]; 15 mg IV, 60-minute infusion): Two
- subjects with nystagmus ([3]; 15 mg IV, 60-minute infusion): two
- bioequivalence of baclofen IV and oral baclofen by AUC0-t and AUC0-inf ([3]; 15 mg at 60-min infusion): not
- subjects with mild transient ataxia ([3]; 20 mg oral): One
- bioequivalence of IV infusions and oral baclofen by Cmax ([3]; 10- and 60-minute IV infusions): not bioequivalent
- bioequivalence of baclofen IV and oral baclofen by AUC0-t and AUC0-inf ([3]; 10-min infusions at all dose levels): demonstrated
- mean Cmax ratio of IV infusion to oral baclofen ([3]; 10-minute IV infusion, CI 247-281%): 263%
- mean Cmax ratio of IV infusion to oral baclofen ([3]; 60-minute IV infusion, CI 135-165%): 149%
- adverse effects ([3]; following both oral and IV doses): Mild, self-limited
- bioavailability ([3]; oral, all cohorts, read-out: estimated mean bioavailability): 89%
- bioavailability ([3]; cohort 2 (11.5 mg IV, 15 mg oral), read-out: bioavailability estimate): 85.8%
- bioavailability ([3]; cohort 3 (15 mg IV, 20 mg oral), read-out: bioavailability estimate): 81.2%
- subjects not awake (took 20 seconds to awaken) ([3]; three and a half hours after a 10 mg oral dose): one
